Patent publication EP1276895B1, “METHOD FOR THE IDENTIFICATION OF ACTIVE SITE PROTEASE INACTIVATORS” (THE UNIVERSITY OF GEORGIA RESEARCH FOUNDATION, INC., priority 2000, dated 2001)
Several values for one entry are separate records, joined by “and”; a condition that tells them apart may be missing. Equal entries are not always repeated. Residues, ends and D or L forms follow the SMILES beside them. *: point of attachment. AFC = O=c1cc(C(F)(F)F)c2ccc(N*)cc2o1; Cbz = O=C(OCc1ccccc1)*; CH2F = FC*

How the values were obtained:
[1] = tested on: normal BALB/c mouse splenocytes; test: Mouse splenocyte proliferation (3H-thymidine incorporation) with inhibitor alone or inhibitor and Con-A; assay type: cell-based; settings: for proliferative response of splenocytes (3H-thymidine incorporation): inhibitor alone; for responsiveness of splenocytes to Con-A: inhibitor and Con-A; for toxicity to normal BALB/c mouse splenocytes in vitro: preliminary results
[2] = tested on: T. crassiceps cysts; assay type: in vivo, Taenia crassiceps; settings: for Percent protection, long-term: BALB/c mice, 5 mice/group, intraperitoneal, treated every day for 30 days post-challenge, left untreated for 5 months, reduction of total cyst number versus controls; for side effects in treated mice, long-term: in vivo
[3] = tested on: Taenia crassiceps cysts; test: Short-term prophylactic protection of BALB/c mice from cysticercosis infection; assay type: in vivo; settings: for % Prophylactic protection of BALB/c mice: pre-injected two days, 10 T. crassiceps cysts/mouse, dosed daily for four weeks, cysts counted after one month, versus untreated controls
[4] = tested on: purified Taenia solium cysteine protease; test: Competitor assay of low Vmax substrates (vehicles) against high Vmax substrate cocktails (Step III), purified protease; assay type: biochemical; settings: for inhibition in the presence of the 1.4% cocktail: 1.4% cocktail = Z-FR-AFC 1X10^-6M; for inhibition with the final cocktail (7.4%): 7.4% cocktail = Z-FR-AFC + Z-FAR-AFC + Z-AAK-AFC + AP-AFC + Z-VLR-AFC, 1X10^-6 M each, vehicle 8X10^-6 M; for Ki of vehicle: Dixon plot, preliminary, values not reported
Procedure: (We employed "Vmax" here although Kcat could also be used). Due to the lower number of substrates, a percentage was not chosen for the "BOTTOM %" " substrates. Alternately, all substrates which were not cleaved as determined by a value of 10 uM/hr or less, were chosen to be tested in this step for competitive ability. From this point forth, the term "vehicle" will represent low Vmax substrates that were capable of inhibiting cleavage of the percent cocktails. In this instance, we tested for "vehicles" which inhibited cleavage of the TOP 1.4% cocktail (they were delivered into the active site). Based upon our results from Step II, the top 1.4% cocktail was composed of Z-Phe-Arg-AFC, the highest cleaved substrate.
The experiment began with a competitor test between the noncleaved low Vmax substrates and the highest Vmax substrate, Z-Phe-Arg-AFC. Concentrations were varied between the low Vmax substrate and Z-Phe-Arg-AFC, as described above under "refinement of assay" until a relative inhibition profile was obtained.
The mixture was allowed to equilibrate for a period of 30 minutes. Finally, active purified enzyme was added to the tubes at a concentration which was always 50 times less than the concentration of the high and low Vmax substrates, in order to insure saturation conditions. This concentration varied from purification to purification and the amount added depended upon the yield and specific activity of the purified protease.
Positive controls were set up similarly as described for test controls, except that solvent was added in substitution for the low Vmax substrate (in a volume equal to the low Vmax volume addition). All of the substrates could be dissolved in dimethylsulfoxide (DMSO), and therefore, this was the solvent of choice. Negative controls were set up by adding the low Vmax and the high Vmax substrate in a tube without the protease. All potential non-proteolytic induced liberation of AFC was therefore controlled for in this tube (a feature which also insured stability of the AFC substrates, since these substrates will freely liberate AFC when unstable). A tube set will be established for this negative control.
All controls were set up in triplicate, and experiments repeated a minimum of five times. The assays were incubated at 37°C, for 18 hours overnight.
Percent inhibition was calculated as: %Inhibition =; ((AFC positive for"Y"-AFC negative for"Y")-(AFC test-AFC negative for"Y")X100)/(AFC positive for "Y"-AFC negative for "Y") [formula]
A 2.9% cocktail of the high Vmax substrates was made. This was composed of Z-FR-AFC and the second most cleaved substrate, Z-FAR-AFC. The vehicles promoted from the initial screenings above were again tested for competitive inhibition ability with the new cocktails. Their concentrations were set identically to those which were "fixed" in the previous protocols. In other words, 8X10^-6M of the vehicle was added to the culture tube with 1X10^-6 M of Z-FR-AFC and 1X10^-6 M of Z-FAR-AFC. Active protease was added last at a concentration that was 50 times less than the concentration of the high Vmax substrate (to ensure saturating conditions).
In similar experimental fashion, a 4.4%, 5.9%, and 7.4% cocktail were tested with each of the promising vehicles. Each percentage point represented an increase by one substrate. Each of the individual components in the cocktail were added at 1X10^-6 M each, to 8X10^-6 M of the vehicle. The composition of the cocktails was as follows: 4.4% cocktail: Z-FR-AFC, Z-FAR-AFC, and Z-AAK-AFC (third highest cleaved substrate); 5.9% cocktail: Z-FR-AFC, Z-FAR-AFC, Z-AAK-AFC, and AP-AFC (fourth highest cleaved substrate); 7.4% cocktail: […], Z-FAR-AFC, Z-AAK-AFC, AP-AFC, and Z-VLR-AFC. We stopped at this number of substrates in the cocktail, since confidence was obtained that inhibitory potential of vehicles could be "diluted out."
Finally, a manageable set of candidate vehicles was determined. […]

[5] = vehicle 8X10^-6M, purified protease

Compound	proliferative response of splenocytes (3H-thymidine incorporation) [1]	responsiveness of splenocytes to Con-A [1]	toxicity to normal BALB/c mouse splenocytes in vitro [1]	Percent protection, long-term [2]	side effects in treated mice, long-term [2]	% Prophylactic protection of BALB/c mice [3]	inhibition in the presence of the 1.4% cocktail [4, 5]	inhibition with the final cocktail (7.4%) ([4]; purified protease)	Ki of vehicle [4]	other results
CC(C)C[C@H](NC(=O)[C@H](CC(C)C)NC(=O)[C@H](CC(C)C)NC(=O)OCc1ccccc1)C(=O)CF [Z-LLL-FMK, Z-Leu-Leu-Leu-fluoromethylketone] (Cbz-Leu-Leu-Leu-CH2F)	do not induce a proliferative response	unaffected	nontoxic	80%	no side effects were noted	100%	–	–	–	responsiveness of splenocytes to Con-A ([1]; listed as LLL-FMK): do not affect the responsiveness; % Prophylactic protection of BALB/c mice ([3]; listed as Leucine-Leucine-Leucine-Fluoromethylketone): 100%
CC(C)C[C@H](NC(=O)OCc1ccccc1)C(=O)N[C@@H](CC(C)C)C(=O)N[C@@H](CC(C)C)C(=O)Nc1ccc2c(C(F)(F)F)cc(=O)oc2c1 [Z-LLL-AFC, Z-Leu-Leu-Leu-AFC] (Cbz-Leu-Leu-Leu-{AFC})	–	–	–	–	–	–	greater than 20%	≥ 50%	lowest Ki values	–
CC(C)C[C@H](NC(=O)OCc1ccccc1)C(=O)N[C@@H](CC(C)C)C(=O)N[C@@H](Cc1ccc(O)cc1)C(=O)Nc1ccc2c(C(F)(F)F)cc(=O)oc2c1 [Z-LLY-AFC, Z-Leu-Leu-Tyr-AFC] (Cbz-Leu-Leu-Tyr-{AFC})	–	–	–	–	–	–	greater than 20%	≥ 50%	lowest Ki values	–
CC(C)C[C@H](NC(=O)OCc1ccccc1)C(=O)N[C@@H](CC(C)C)C(=O)N[C@@H](Cc1ccc(O)cc1)C(=O)CF [Z-LLY-FMK, Z-Leu-Leu-Tyr-FMK] (Cbz-Leu-Leu-Tyr-CH2F)	do not induce a proliferative response	unaffected	nontoxic	95%	no side effects were noted	85-97%	–	–	–	responsiveness of splenocytes to Con-A ([1]; listed as LLY-FMK): do not affect the responsiveness; protection from cysticercosis infection, subsequent repeat of the prophylactic experiment ([3]; identical prophylactic experiment repeated): 75%-90%; % Prophylactic protection of BALB/c mice ([3]; listed as Leucine-Leucine-Tyrosine-Fluoromethylketone): 85-97%; side effects / inhibitor toxicity in treated mice, short-term ([3]; visual inspection (coat condition, tail dragging or paresis)): no mice showed effects of inhibitor toxicity
Mu-Leu-Tyr-AFC [Mu-LY-AFC]	–	–	–	–	–	–	–	≥ 50%	lowest Ki values	V Value ([4]; purified protease, V = P * M, P = inhibition with first (1.4%) cocktail, M = inhibition with last (7.4%) cocktail, vehicle 8X10^-6M, each cocktail substrate 1X10^-6 M): 0.452 and 0.450
